For two molecules, Mite allergen concentration and Reduction results are on record in US8338404B2, “Composition and method for reducing allergen” (Kyowa Hakko Bio Co., Ltd., priority 2007, dated 2012).

The assay deals with T1, mite allergen Derf2 (Dermatophagoides farinae, UniProt Q00855).
T1 construct: mite allergen Derf2 contained in standard house dust; from tissue; host or cells: standard house dust (natural mite allergen, not recombinant)
T1 sequence (Q00855 18-146): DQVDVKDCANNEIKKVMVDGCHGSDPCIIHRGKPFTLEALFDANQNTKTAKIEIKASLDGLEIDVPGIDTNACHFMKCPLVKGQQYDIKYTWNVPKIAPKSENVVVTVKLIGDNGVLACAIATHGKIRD
In words: Effects of processed fiber for reducing mite allergen (sandwich ELISA). The assay is classed as biochemical. The following applies: 5% treatment solution, 1 hour; for Mite allergen concentration: 1 ml mite allergen buffer. On the procedure: At the outset, anti-Derf2 monoclonal antibody 15E11, which was diluted to 2 μg/ml in phosphate buffer (pH 7.4, containing 0.1% by weight of NaN3) was applied to the F16 Maxisorp Nunc-Immuno Module plate (NUNC) in amounts of 100 μl per well and subjected to sensitization at 4° C. for at least 1 day. After sensitization, the liquid was removed, a blocking reagent (1% by weight of bovine serum albumin and phosphate buffer (pH 7.2, containing 0.1% by weight of NaN3)) was added in amounts of 100 μl per well, and the reaction was allowed to proceed at 37° C. for 60 minutes. After the reaction, the plate was washed in phosphate buffer (pH 7.2, containing 0.1% by weight of polyoxyethylene (20) sorbitan monolaurate). Subsequently, the sample resulting from the reaction of mite allergens with the aforementioned solution was added dropwise thereto in amounts of 100 μl per well, and the reaction was allowed to proceed at 37° C. for 60 minutes.
After the reaction, the plate was washed in phosphate buffer (pH 7.2, containing 0.1% by weight of polyoxyethylene (20) sorbitan monolaurate). The peroxidase-labeled anti-Derf2 monoclonal antibody was dissolved to 200 μg/ml in distilled water, the resultant was diluted 1,000-fold with phosphate buffer (pH 7.2, containing 1% by weight of bovine serum albumin and 0.1% by weight of polyoxyethylene (20) sorbitan monolaurate), and the resulting solution was added in amounts of 100 μl per well. The reaction was allowed to proceed at 37° C. for 60 minutes, and the plate was first washed with phosphate buffer (pH 7.2, containing 0.1% by weight of polyoxyethylene (20) sorbitan monolaurate) and then with distilled water. Ortho-phenylenediamine dihydrochloride (26 mg tablet, Sigma Chemical Co.) and a hydrogen peroxide solution (13 μl) were added to 13 ml of 0.1 mol/l phosphate buffer (pH 6.2), the resultant was added in amounts of 100 μl per well, and the reaction was allowed to proceed at 37° C. for 5 minutes. Immediately thereafter, 50 μl each of 2 mol/l H2SO4 was introduced so as to terminate the reaction, and the absorbance (OD 490 nm) was assayed using a microplate spectrophotometer (Bio-Rad Laboratories Inc.)
The allergen-reducing fabric obtained in Example 8 was tested in terms of the effects of allergen reduction. As a control, a white cotton broadcloth and polyethylene terephthalate (PET) cloth were soaked via a padding method in an aqueous solution of 5% tannic acid (an equivalent of JP Patent Publication (kokai) No. 61-44821 A (1986)), the clothes were dried at 110° C. for 2 minutes, and the resultants were tested in terms of the effects of allergen reduction.
The clothes (5 cm×5 cm each) were introduced into reclosable plastic bags, 1 ml of phosphate buffer (pH 7.2) of mite allergen was added thereto, and the resultants were allowed to stand for 1 hour. The centrifuged samples were subjected to enzyme immunoassay (i.e., sandwich ELISA) in the same manner as in Test Example 1 to inspect the effects of reducing mite allergen Derf2.
A general note: ELISA stands for enzyme-linked immunosorbent assay.

The mark [1] stands for this setting: PET cloth 5 cm×5 cm, not treated: 970 ng/ml.
Setting [2] is: cotton broadcloth 5 cm×5 cm, not treated: 720 ng/ml.

Consider `CC(=O)N1C[C@H](O)C[C@H]1C(=O)O` [N-acetyl-trans-4-hydroxy-L-proline], for which the Mite allergen concentration came to 2.3 ng/mL under setting [1] and 3.5 ng/mL under setting [2]. In addition, the Reduction is reported as 99.8% (PET cloth 5 cm×5 cm) and 99.5% (cotton broadcloth 5 cm×5 cm).
The like results for `O=C(OC[C@H]1O[C@@H](OC(=O)c2cc(O)c(O)c(OC(=O)c3cc(O)c(O)c(O)c3)c2)[C@H](OC(=O)c2cc(O)c(O)c(OC(=O)c3cc(O)c(O)c(O)c3)c2)[C@@H](OC(=O)c2cc(O)c(O)c(OC(=O)c3cc(O)c(O)c(O)c3)c2)[C@@H]1OC(=O)c1cc(O)c(O)c(OC(=O)c2cc(O)c(O)c(O)c2)c1)c1cc(O)c(O)c(OC(=O)c2cc(O)c(O)c(O)c2)c1` [tannic acid] were, in that order, 190 ng/mL, 120 ng/mL, 80% and 83%.
